The test system of this assay is cisplatin-induced emesis in ferrets. Nature of the assay: Ferret emesis, cisplatin-induced retches and vomits (Assay 3). The format is in vivo. Conditions: Mustela putorius; p.o., cisplatin 10 mg/kg i.v. 60 minutes after oral dosing; 4 h observation; read-out: ferret emesis: ID90. As for the experimental part:
ASSAY 3: Ferret Emesis Individually housed male ferrets (1.0-2.5 kg) are dosed orally by gavage with test compound. Ten minutes later they are fed with approximately 10 g of tinned cat food. At 60 minutes following oral dosing, cisplatin (10 mg/kg) is given i.v. via a jugular vein catheter inserted under a brief period of halothane anaesthesia. The catheter is then removed, the jugular vein ligated and the skin incision closed. The ferrets recover rapidly from the anaesthetic and are mobile within 10-20 minutes. The animals are observed continuously during recovery from the anaesthetic and for 4 hours following the cisplatin injection. The numbers of retches and vomits occurring during the 4 hours after cisplatin administration are recorded by trained observers.

SMILES strings stand for the structures.

With `C[C@@H](O[C@H]1OCCN(Cc2n[nH]c(=O)[nH]2)[C@H]1c1ccc(F)cc1)c1cc(C(F)(F)F)cc(C(F)(F)F)c1` [2-(R)-(1-(R)-(3,5-bis(trifluoromethyl)phenyl)ethoxy)-3-(S)-(4-fluorophenyl)-4-(3-(5-oxo-1H, 4H-1,2,4-triazolo)methyl)-morpholine], the ED90 is under 3 mg/kg.

The record behind these values is patent US5952330A, “Use of NK-1 receptor antagonists for treating mania” (Merck Sharp & Dohme Ltd., priority 1997, dated 1999).
